In US20250205344A1, “2,4-DIOXOTETRAHYDROPYRIMIDINYL DERATIVES AS DEGRONS IN PROTACS” (GLAXOSMITHKLINE INTELLECTUAL PROPERTY DEVELOPMENT LIMITED, priority 2022, published 2025):
Counter-ions that a name gives are not always drawn.

How the values were obtained:
[1] = biological target: T1, Androgen Receptor (Homo sapiens, UniProt P10275, T878A); test: Androgen Receptor Degradation Assay (Nano-Glo HiBiT); format: cell-based; details: LNCaP, 18 h, HiBiT-tagged AR in human LnCaP cells, read-out: mean asymptote max
T1 construct: the AR gene was modified, using CRISPR/Cas9 editing, so the expressed AR protein included an 11 amino acid HiBiT tag; endogenous in cells; host or cells: clonal LnCaP-derived line, AR gene edited by CRISPR/Cas9
T1 sequence (P10275 whole entry T878A): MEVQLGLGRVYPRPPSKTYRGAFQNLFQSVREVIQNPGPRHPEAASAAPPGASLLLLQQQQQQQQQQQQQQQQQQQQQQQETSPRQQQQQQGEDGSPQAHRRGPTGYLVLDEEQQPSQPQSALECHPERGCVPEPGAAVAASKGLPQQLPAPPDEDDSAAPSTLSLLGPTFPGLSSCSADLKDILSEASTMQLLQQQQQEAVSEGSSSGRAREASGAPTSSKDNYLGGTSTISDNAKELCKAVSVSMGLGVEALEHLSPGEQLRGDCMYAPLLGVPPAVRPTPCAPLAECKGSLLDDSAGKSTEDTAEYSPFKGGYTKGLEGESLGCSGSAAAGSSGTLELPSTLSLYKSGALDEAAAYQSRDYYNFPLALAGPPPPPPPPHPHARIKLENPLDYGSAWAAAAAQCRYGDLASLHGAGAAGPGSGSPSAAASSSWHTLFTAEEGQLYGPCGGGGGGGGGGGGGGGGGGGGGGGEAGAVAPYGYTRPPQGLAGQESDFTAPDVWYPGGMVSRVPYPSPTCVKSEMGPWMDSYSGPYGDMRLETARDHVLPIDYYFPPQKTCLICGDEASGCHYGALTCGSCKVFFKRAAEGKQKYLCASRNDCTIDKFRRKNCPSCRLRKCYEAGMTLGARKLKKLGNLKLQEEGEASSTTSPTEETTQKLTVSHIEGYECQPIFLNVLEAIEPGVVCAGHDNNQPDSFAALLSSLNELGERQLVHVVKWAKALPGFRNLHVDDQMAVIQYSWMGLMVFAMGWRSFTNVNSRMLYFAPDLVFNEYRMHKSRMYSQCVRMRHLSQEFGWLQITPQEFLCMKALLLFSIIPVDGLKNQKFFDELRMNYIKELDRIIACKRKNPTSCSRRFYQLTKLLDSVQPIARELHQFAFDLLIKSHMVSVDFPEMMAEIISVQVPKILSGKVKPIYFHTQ
T1 sequence (Q96SW2 whole entry partner): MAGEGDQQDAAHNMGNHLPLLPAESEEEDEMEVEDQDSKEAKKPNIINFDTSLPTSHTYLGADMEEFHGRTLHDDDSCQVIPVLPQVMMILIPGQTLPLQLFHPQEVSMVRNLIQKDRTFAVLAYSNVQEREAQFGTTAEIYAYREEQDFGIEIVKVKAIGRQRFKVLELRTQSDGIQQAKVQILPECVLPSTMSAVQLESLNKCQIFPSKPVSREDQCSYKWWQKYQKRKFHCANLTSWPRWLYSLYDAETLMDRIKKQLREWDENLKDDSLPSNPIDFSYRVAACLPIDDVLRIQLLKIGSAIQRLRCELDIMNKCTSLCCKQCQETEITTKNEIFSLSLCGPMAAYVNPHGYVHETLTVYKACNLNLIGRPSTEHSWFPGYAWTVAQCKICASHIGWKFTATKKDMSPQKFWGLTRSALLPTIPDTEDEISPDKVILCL
T1 sequence (Q16531 whole entry partner): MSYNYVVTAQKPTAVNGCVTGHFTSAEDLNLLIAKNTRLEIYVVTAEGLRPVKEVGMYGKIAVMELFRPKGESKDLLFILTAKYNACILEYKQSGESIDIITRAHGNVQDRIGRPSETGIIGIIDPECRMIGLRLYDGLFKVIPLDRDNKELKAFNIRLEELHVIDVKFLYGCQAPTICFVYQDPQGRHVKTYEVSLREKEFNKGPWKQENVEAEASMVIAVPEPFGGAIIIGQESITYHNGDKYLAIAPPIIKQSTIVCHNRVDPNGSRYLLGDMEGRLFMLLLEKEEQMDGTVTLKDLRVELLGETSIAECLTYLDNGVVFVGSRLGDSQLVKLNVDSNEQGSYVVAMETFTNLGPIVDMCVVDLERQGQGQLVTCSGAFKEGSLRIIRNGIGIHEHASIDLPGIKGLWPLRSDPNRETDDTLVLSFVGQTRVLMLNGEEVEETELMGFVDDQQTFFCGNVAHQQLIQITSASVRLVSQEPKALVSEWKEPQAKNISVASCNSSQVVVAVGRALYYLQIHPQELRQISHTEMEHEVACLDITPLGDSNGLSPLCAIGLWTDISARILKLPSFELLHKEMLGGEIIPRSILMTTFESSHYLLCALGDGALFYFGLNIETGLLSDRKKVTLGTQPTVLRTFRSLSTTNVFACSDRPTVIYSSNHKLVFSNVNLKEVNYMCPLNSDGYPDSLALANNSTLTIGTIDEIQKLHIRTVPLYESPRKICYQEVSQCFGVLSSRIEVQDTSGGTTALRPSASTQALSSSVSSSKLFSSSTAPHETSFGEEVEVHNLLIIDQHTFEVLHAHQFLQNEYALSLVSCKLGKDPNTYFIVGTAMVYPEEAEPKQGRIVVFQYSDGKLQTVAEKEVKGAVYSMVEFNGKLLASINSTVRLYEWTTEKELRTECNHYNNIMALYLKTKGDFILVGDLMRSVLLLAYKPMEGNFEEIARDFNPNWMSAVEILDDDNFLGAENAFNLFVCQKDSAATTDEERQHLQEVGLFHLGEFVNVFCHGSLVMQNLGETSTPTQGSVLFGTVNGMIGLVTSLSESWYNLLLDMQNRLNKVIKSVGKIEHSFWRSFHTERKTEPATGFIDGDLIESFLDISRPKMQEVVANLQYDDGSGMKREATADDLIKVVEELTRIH
Summary of the method: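 LnCaP cells with CRISPR-knocked-in N-terminal HiBiT-tagged AR (10,000/well) treated 18 h at 37 °C with PROTACs over 11 threefold concentrations; lytic HiBiT luminescence normalised to DMSO (0%) and cell-free (100%) controls. Relative DC50 = 4-parameter fit inflection; absolute DC50 = 50% degradation interpolation; Dmax = maximum observed degradation.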

[2] = biological target: T2, Androgen Receptor dual T878A/L702H mutant protein (Homo sapiens, UniProt P10275, L702H/T878A); test: Dual Mutant (T878A/L702H) Androgen Receptor Degradation Assay (HTRF); format: cell-based; details: MDA-PCa-2b, 18 h, human MDA PCa 2b cells, read-out: mean asymptote max
T2 construct: Androgen Receptor dual T878A/L702H mutant protein in human MDA PCa 2b (ATCC, #CRL-2422) cells; host or cells: MDA PCa 2b
T2 sequence (P10275 1-920 L702H/T878A): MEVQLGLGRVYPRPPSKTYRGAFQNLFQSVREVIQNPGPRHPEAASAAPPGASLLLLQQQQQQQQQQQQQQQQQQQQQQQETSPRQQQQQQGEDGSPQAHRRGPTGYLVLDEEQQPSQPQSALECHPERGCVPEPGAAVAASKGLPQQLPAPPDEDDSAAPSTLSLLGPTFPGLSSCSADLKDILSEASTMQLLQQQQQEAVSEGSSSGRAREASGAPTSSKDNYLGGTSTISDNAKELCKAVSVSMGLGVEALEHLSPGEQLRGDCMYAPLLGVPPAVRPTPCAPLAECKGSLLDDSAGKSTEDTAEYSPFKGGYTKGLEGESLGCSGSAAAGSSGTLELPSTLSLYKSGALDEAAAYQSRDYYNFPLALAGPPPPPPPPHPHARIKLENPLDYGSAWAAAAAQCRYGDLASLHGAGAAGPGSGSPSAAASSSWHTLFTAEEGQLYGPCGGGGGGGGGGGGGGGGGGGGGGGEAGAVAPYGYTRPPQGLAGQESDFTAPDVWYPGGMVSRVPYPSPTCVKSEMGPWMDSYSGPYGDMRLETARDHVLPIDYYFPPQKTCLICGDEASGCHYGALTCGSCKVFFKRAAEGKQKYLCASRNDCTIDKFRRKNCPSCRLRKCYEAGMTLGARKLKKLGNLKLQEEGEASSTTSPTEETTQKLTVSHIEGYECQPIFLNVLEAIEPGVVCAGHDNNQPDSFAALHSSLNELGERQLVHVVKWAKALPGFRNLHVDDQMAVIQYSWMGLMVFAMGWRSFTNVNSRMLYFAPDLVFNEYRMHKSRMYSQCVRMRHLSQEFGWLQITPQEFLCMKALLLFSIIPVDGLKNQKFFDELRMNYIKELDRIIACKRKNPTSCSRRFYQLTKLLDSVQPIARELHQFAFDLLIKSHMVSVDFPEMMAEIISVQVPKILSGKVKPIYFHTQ
Description: Degradation of Androgen Receptor dual T878A/L702H mutant protein in human MDA PCa 2b (ATCC, #CRL-2422) cells treated with PROTACs was quantified using the HTRF Human Androgen Receptor Detection Kit (PerkinElmer, #64ANDRPEH) in 384 well assay plate format. 10 mM DMSO(Sigma-Aldrich, #472301) stock solutions of PROTACs were prepared and diluted across an 11 concentration, 3-fold increment range, and 25 nL dispensed into a white opaque bottomed 384 well assay plate (Thermofisher, #164610) using an acoustic ECHO dispenser (Labcyte). Cells were cultured in growth medium (BRFF-HPC-1 (Athena ES, #0403) supplemented with 20% FBS (Gibco, #10099-141), penicillin 50 U/mL and streptomycin 50 ug/mL (Gibco, #15140-122)) in collagen I or poly-D-lysine coated T175 flasks (Corning, #356487 or #356539, respectively). For the assay, cells were harvested from the flask, centrifuged at 200 g for 5 min and then resuspended in the growth medium. 25 μl of cell suspension containing 10,000 cells was dispensed into each well of the assay plate containing the test compounds, which was then incubated for 18 h at 37° C./5% CO2. Control wells were included on each assay plate, with assay medium without cells being the no AR remaining 100% effect control, and cells treated with DMSO vehicle only, without PROTAC, the 0% effect control. After 18 h incubation 8 μl of supplemented lysis buffer from HTRF kit was added to each well and the plate shaken at 500 rpm for 1 h at room temperature. 8 μl of antibody mix in Detection buffer from HTRF kit was added to each well and the plate was incubated for 2 h in dark at room temperature. The fluorescence was measured at both 620 nm and 665 nm using an excitation wavelength of 337 nm with a PHERAstar microplate reader (BMG Labtech) and the % AR protein remaining in each well was calculated by normalising the HTRF ratio (665 nm signal/620 nm signal) value to the control wells mentioned above. Parameters corresponding to the potency and efficacy estimates of the PROTACs were obtained from these normalised values using curve fitting software (IDBS ActivityBase). These included the DC50 and the Dmax estimates. Two versions of the DC50, called relative DC50 and absolute DC50, were typically generated. These are the inflection point of a fitted 4 parameter sigmoidal response curve and the interpolated concentration of PROTAC corresponding to 50% of the protein being degraded, respectively. The Dmax parameter was the maximum experimentally observed degradation and the asymptote max parameter the fitted response curve asymptote maximum.

Row | Structure (SMILES) | Dmax [1] | Dmax [2]
1 | CC1(C)[C@H](NC(=O)c2cnc(N3CCC(CN4CCC(n5ccc6c(N7CCC(=O)NC7=O)cncc65)CC4)CC3)cn2)C(C)(C)[C@H]1Oc1ccc(C#N)c(Cl)c1 [AR14, N-((1r,3r)-3-(3-Chloro-4-cyanophenoxy)-2,2,4,4-tetramethylcyclobutyl)-5-(4-((4-(4-(2,4-dioxotetrahydropyrimidin-1(2H)-yl)-1H-pyrrolo[2,3-c]pyridin-1-yl)piperidin-1-yl)methyl)piperidin-1-yl)pyrazine-2-carboxamide] | ≥ 50% | ≥ 55%
2 | CC1(C)[C@H](NC(=O)c2ccc(N3CCC(CN4CCC(n5ncc6c(N7CCC(=O)NC7=O)cccc65)CC4)CC3)nc2)C(C)(C)[C@H]1Oc1ccc(C#N)c(Cl)c1 [AR41, N-((1r,3r)-3-(3-Chloro-4-cyanophenoxy)-2,2,4,4-tetramethylcyclobutyl)-6-(4-((4-(4-(2,4-dioxotetrahydropyrimidin-1(2H)-yl)-1H-indazol-1-yl)piperidin-1-yl)methyl)piperidin-1-yl)nicotinamide hydrochloride] | ≥ 50% | ≥ 55%
3 | CC1(C)[C@H](NC(=O)c2cnc(N3CCC(C(=O)N4CCC(n5ccc6c(N7CCC(=O)NC7=O)cccc65)CC4)CC3)nc2)C(C)(C)[C@H]1Oc1ccc(C#N)c(Cl)c1 [AR67, N-((1r,3r)-3-(3-Chloro-4-cyanophenoxy)-2,2,4,4-tetramethylcyclobutyl)-2-(4-(4-(4-(2,4-dioxotetrahydropyrimidin-1(2H)-yl)-1H-indol-1-yl)piperidine-1-carbonyl)piperidin-1-yl)pyrimidine-5-carboxamide] | ≥ 50% | ≥ 55%
4 | CC1(C)[C@H](NC(=O)c2ccc(N3CCC(CN4CCC(n5ncc6c(N7CCC(=O)NC7=O)cccc65)CC4)CC3)nn2)C(C)(C)[C@H]1Oc1ccc(C#N)c2ncccc12 [AR246, N-((1r,3r)-3-((8-Cyanoquinolin-5-yl)oxy)-2,2,4,4-tetramethylcyclobutyl)-6-(4-((4-(4-(2,4-dioxotetrahydropyrimidin-1(2H)-yl)-1H-indazol-1-yl)piperidin-1-yl)methyl)piperidin-1-yl)pyridazine-3-carboxamide] | ≥ 50% | ≥ 55%
5 | CC1(C)[C@H](NC(=O)c2ccc(N3CCC(CN4CCC(n5ccc6c(N7CCC(=O)NC7=O)ncnc65)CC4)CC3)nn2)C(C)(C)[C@H]1Oc1ccc(C#N)c(Cl)c1 [AR247, N-((1r,3r)-3-(3-Chloro-4-cyanophenoxy)-2,2,4,4-tetramethylcyclobutyl)-6-(4-((4-(4-(2,4-dioxotetrahydropyrimidin-1(2H)-yl)-7H-pyrrolo[2,3-d]pyrimidin-7-yl)piperidin-1-yl)methyl)piperidin-1-yl)pyridazine-3-carboxamide] | ≥ 50% | ≥ 55%
6 | CC1(C)[C@H](NC(=O)c2ccc(N3CCC(CN4CCC(n5ncc6c(N7CCC(=O)NC7=O)cccc65)CC4)CC3)nc2)C(C)(C)[C@H]1Oc1ccc(C#N)c2ncccc12 [AR261, N-((1r,3r)-3-((8-Cyanoquinolin-5-yl)oxy)-2,2,4,4-tetramethylcyclobutyl)-6-(4-((4-(4-(2,4-dioxotetrahydropyrimidin-1(2H)-yl)-1H-indazol-1-yl)piperidin-1-yl)methyl)piperidin-1-yl)nicotinamide hydrochloride] | – | ≥ 55%
7 | CC1(C)[C@H](NC(=O)c2cnc(N3CCC(CN4CCC(n5ccc6c(N7CCC(=O)NC7=O)cncc65)CC4)CC3)nc2)C(C)(C)[C@H]1Oc1ccc(C#N)c(Cl)c1 [EAR18, N-((1r,3r)-3-(3-Chloro-4-cyanophenoxy)-2,2,4,4-tetramethylcyclobutyl)-2-(4-((4-(4-(2,4-dioxotetrahydropyrimidin-1(2H)-yl)-1H-pyrrolo[2,3-c]pyridin-1-yl)piperidin-1-yl)methyl)piperidin-1-yl)pyrimidine-5-carboxamide] | ≥ 50% | ≥ 55%
8 | CC1(C)[C@H](NC(=O)c2ccc(N3CCC(CN4CCC(n5ccc6c(N7CCC(=O)NC7=O)cccc65)CC4)CC3)nc2)C(C)(C)[C@H]1Oc1ccc(C#N)c(Cl)c1 [EAR29, N-((1r,3r)-3-(3-chloro-4-cyanophenoxy)-2,2,4,4-tetramethylcyclobutyl)-6-(4-((4-(4-(2,4-dioxotetrahydropyrimidin-1(2H)-yl)-1H-indol-1-yl)piperidin-1-yl)methyl)piperidin-1-yl)nicotinamide formate] | ≥ 50% | ≥ 55%
9 | CC1(C)[C@H](NC(=O)c2cnc(N3CCC(CN4CCC(n5ncc6c(N7CCC(=O)NC7=O)cccc65)CC4)CC3)cn2)C(C)(C)[C@H]1Oc1ccc(C#N)c(Cl)c1 [EAR37, N-((1r,3r)-3-(3-Chloro-4-cyanophenoxy)-2,2,4,4-tetramethylcyclobutyl)-5-(4-((4-(4-(2,4-dioxotetrahydropyrimidin-1(2H)-yl)-1H-indazol-1-yl)piperidin-1-yl)methyl)piperidin-1-yl)pyrazine-2-carboxamide hydrochloride] | ≥ 50% | ≥ 55%
10 | CC1(C)[C@H](NC(=O)c2ccc(CCCCCCN3CCC(n4ccc5c(N6CCC(=O)NC6=O)cccc54)CC3)cc2)C(C)(C)[C@H]1Oc1ccc(C#N)c(C(F)(F)F)c1 [EAR75, N-((1r,3r)-3-(4-Cyano-3-(trifluoromethyl)phenoxy)-2,2,4,4-tetramethylcyclobutyl)-4-(6-(4-(4-(2,4-dioxotetrahydropyrimidin-1(2H)-yl)-1H-indol-1-yl)piperidin-1-yl)hexyl)benzamide] | ≥ 50% | ≥ 55%
11 | CC1(C)[C@H](NC(=O)c2ccc(N3CCC(CN4CCC(n5ccc6c(N7CCC(=O)NC7=O)nccc65)CC4)CC3)nn2)C(C)(C)[C@H]1Oc1ccc(C#N)c2ncccc12 [EAR251, N-((1r,3r)-3-((8-Cyanoquinolin-5-yl)oxy)-2,2,4,4-tetramethylcyclobutyl)-6-(4-((4-(4-(2,4-dioxotetrahydropyrimidin-1(2H)-yl)-1H-pyrrolo[3,2-c]pyridin-1-yl)piperidin-1-yl)methyl)piperidin-1-yl)pyridazine-3-carboxamide hydrochloride] | ≥ 50% | ≥ 55%
